Consider eight compounds from patent US11712443B2, “17α-monoesters and 17α,21-diesters of cortexolone for use in the treatment of tumors” (COSMO TECHNOLOGIES LTD., priority 2014, dated 2023).

Data set [1] has as its system stimulated PBMC. The data set is described as follows: IC50 on stimulated PBMC (actively dividing cells). Conditions: for Therapeutic Index = IC50 resting PBMC/IC50 cancer cell: PBMC Stim, healthy lymphocyte, Table IV; for Therapeutic Index = IC50 stimulated PBMC/IC50 cancer cell, AVERAGE: average across the 7 cancer cell lines, Table VII.
Procedure: The IC^50 in PBMC were tested in 2 different activation status:
stimulated—actively dividing cells
IC50 of the compounds was determined on fresh cells isolated from human blood (PBMC). The compounds toxicity was determined as follow: Therapeutic Index=Safety/Potency=IC50 stimulated PBMC_/IC50 cancer cell
Data set [2] concerns MDA-MB-231. The data set is described as follows: In vitro proliferation / cytotoxic assay on breast cancer cells (cell titer glo). Type of data set: cell-based. As for the experimental part: (§1) For the cytotoxic assay: cells seeded in 96 well flat bottom culture plates in media containing charcoal stripped serum. After 24 hours test compounds were added to the cells. DMSO was used as the vehicle negative control and RU486 as the positive control. After 72 hours incubation cell were harvested, lysed and viability determined using the cell titer glow assay for viability.

The subject of data set [3] is Caspase 3/7. Briefly: Caspase activity assay in MiaPaca2 cells. Format: cell-based. Conditions: 8, 24, 48 hours, FIG. 11.
Procedure: To better analyze the phenomenon the enzymatic activity of Caspase 8 (initiator caspase for Extrinsic Pathway) and Caspase 9 (initiator caspase for Intrinsic Pathway) and of Caspases 3 and 7 (effector caspases) were measured.
After 8, 24, & 48 hours incubation with test compounds, cells were lysed in buffer containing the caspase 3/7 or 8 or 9 substrate and a stable luciferase in proprietary buffers. The lysates were transferred to white opaque plates before measuring luminescence in a Tecan S afire instrument. Parallel plates treated identically, were used to determine viable cells. All caspase activities were corrected for the number of viable cells.
The subject of data set [4] is HT29. The data set is described as follows: In vitro proliferation, larger cancer cell line panel. To be noted: Homo sapiens, HT-29, read-out: in vitro proliferation IC50.
In data set [5] the test system is LNCaP. Briefly: ATP-dependent proliferation/viability assay (Cell Titer Glo), 3 days. To be noted: Homo sapiens, LNCaP, 72 h, LNCaP (AR+); 10 nM DHT; 3 days; Examples 1-2 Experiment 1, sigmoidal dose response fit. The method, then:
The experiment was performed to test and to define the antitumor activity in vitro of cortexolone 17α-benzoate on LNCaP (AR+) and PC3 (AR^−), representative of Prostatic cancer cell lines with Androgen Receptor (AR) positive or negative expression, respectively. The experimental method consisted of: • 1. […] After 24 hours, 10 nM DHT (dihydrotestosterone) with or without anti-androgen compounds, or DMSO vehicle (negative control) was added to the cultures. • 3.
The experiment was performed to test and to define antitumor activity in vitro of cortexolone 17α-valerate-21-propionate (CB-03-10) on LNCaP (AR+) and PC3 (AR^−), representative of Prostatic cancer cell lines with AR positive or negative expression, respectively. The experimental method consisted of: • 1. […] After 24 hours, 10 nM DHT (dihydrotestosterone) with or without anti-androgen compounds, or DMSO vehicle (negative control) was added to the cultures. • 3.
(In general: In ATP-based viability assays light output follows the ATP content of the culture.)

The test system of data set [6] is MiaPaca-2 pancreatic tumor xenograft. Briefly: Human pancreatic tumor xenograft in nude mice, subcutaneous treatment. Type of data set: in vivo. Conditions: for average tumor size increase: Cyproterone Acetate treatment groups (7.4 mg/kg and 37 mg/kg) SC daily 28 days. As for the experimental part:
The test was carried out comparing the anti-tumor activity of cortexolone 17α-benzoate at two different dosages (8.0 mg/kg, corresponding approximately at 230 μM, and 40 mg/kg, corresponding approximately at 1150 μM), versus the vehicle (i.e. 0.4% (v/v) tween 80 and 0.5% (w/v) carboxymethylcellulose in normal saline) and versus the comparator Cyproterone Acetate at two different dosages (7.4 mg/kg and 37 mg/kg).
1×10^6 MiaPaca-2 cells suspended in matrigel were subcutaneously injected into 6 week old athymic nude mice.
The treatment with the tested compounds, with the vehicle and with the comparative compound, was initiated after the tumor volume has reached 50 mm3 after transplantation. All compounds were injected 100 μL/mouse subcutaneously of low dose solution (approximately 230 μM) or 100 μL/mouse of high dose solution (approximately 1150 μM) of cortexolone 17α-benzoate, vehicle and cyproterone acetate, respectively. Compounds and controls were administered subcutaneously daily for 28 days.
Tumors were measured every 4 days with a digital caliper.
The results are plotted in FIG. 1 as average change in tumor volume relative to the start of treatment. Tumor volume was calculated according to the formula 0.5236(r1)^2(r2) where r1<r2.
The test was carried out comparing the anti-tumor activity of cortexolone 17α-valerate-21-propionate (CB-03-10) at two different dosages (approximately 8.6 mg/kg and 43 mg/kg) versus the vehicle (i.e. 0.4% (v/v) tween 80 and 0.5% (w/v) carboxymethylcellulose in normal saline) and versus the comparator Cyproterone Acetate at two different dosages (7.4 mg/kg and 37 mg/kg).
The treatment with the tested compound, with the vehicle and with the comparative compound was initiated after the tumor has reached a volume of 50 mm3 after implantation, injecting subcutaneously 100 μL/mouse of low dose solution (approximately 230 μM) or 100 μL/mouse of high dose solution (approximately 1150 μM) of cortexolone 17α-valerate-21-propionate (CB-03-10), vehicle and cyproterone acetate, respectively. Compounds and controls were administered subcutaneously daily for 28 days.
The results are plotted in FIG. 2 as average change in tumor volume relative to the start of treatment. Tumor volume was calculated according to the formula 0.5236(r1)^2(r2) where r1<r2.
CPA a well-known anti-androgen was used as control. Briefly 1×10^6 MiaPaca2 cells suspended in matrigel were subcutaneously (SC) injected into 6 week old male athymic nude mice. Tumors were measured every 4 days with a digital caliper. Tumor volume was calculated according to the formula: 0.5236(r1)2(r2) where r1<r2. Treatment with CB-03-10 and controls compounds was initiated after the tumor had reached 50 mm3. Compounds diluted in DMSO/2-hydroxypropyl b-cyclodextrin (vehicle) were injected subcutaneously (SC) daily (100 μL/mouse) at the concentration of 40 mg/Kg daily for 28 consecutive days.
(In general: A xenograft is tissue or cells of one species grown in another, often human tumour cells in immunodeficient mice.)

The test system of data set [7] is Panc1. The data set is described as follows: ATP-dependent proliferation/viability assay (Cell Titer Glo), 3 days. To be noted: IC50 stimulated PBMC / IC50 Panc1; Experiment 1; 0 = higher toxicity in PBMC than in the cancer cell lines.
Data set [8] concerns LNCaP prostate cancer xenograft. Briefly: Human prostate cancer xenograft in nude mice, oral treatment. Format: in vivo. As for the experimental part: 3×10^6 LNCaP cells suspended in matrigel were subcutaneously injected (on the right flank) into 6 week old male athymic nude mice. Tumors were measured as described above. Treatment with CB-03-10 and controls compounds was initiated after the tumor had reached 50 mm3. […] Oral dosing was daily (100 mg/Kg in 200 μL/mouse) for 28 consecutive days. Results were plotted as average change in tumor volume relative to the start of treatment.

Data set [9] deals with MCF7. The data set is described as follows: In vitro proliferation / cytotoxic assay on breast cancer cells (cell titer glo). Conditions: MCF7 (ER+PR+GR+/-); 72 hours; Table VI prints no unit (same values in Table III in μM). The method, then:
as §1

As for `CCCC(=O)OC1(C(=O)CO)CCC2C3CCC4=CC(=O)CC[C@]4(C)C3=CC[C@@]21C` (single isomer, unassigned) [CB-03-04], in [1], the “Therapeutic Index = IC50 resting PBMC/IC50 cancer cell” value was 1 and the “Therapeutic Index = IC50 stimulated PBMC/IC50 cancer cell, AVERAGE” value was 4.
For `CCC(=O)O[C@]1(C(=O)CO)CC[C@H]2[C@@H]3CCC4=CC(=O)CC[C@]4(C)[C@H]3CC[C@@]21C` [CB-03-01], in [1], the “Therapeutic Index = IC50 resting PBMC/IC50 cancer cell” value came to 1 and the “Therapeutic Index = IC50 stimulated PBMC/IC50 cancer cell, AVERAGE” value came to 0.
On to `CCCC(=O)OCC(=O)[C@@]1(OC(=O)CCC)CCC2C3CCC4=CC(=O)CC[C@]4(C)C3CC[C@@]21C` (some centres unmarked) [CB-03-03], for which, in data set [1], the “Therapeutic Index = IC50 resting PBMC/IC50 cancer cell” value came out at 1 and the “Therapeutic Index = IC50 stimulated PBMC/IC50 cancer cell, AVERAGE” value stood at 4.
`CCCCC(=O)O[C@]1(C(=O)CO)CC[C@H]2[C@@H]3CCC4=CC(=O)CC[C@]4(C)[C@H]3CC[C@@]21C` [CB-03-05, cortexolone 17α-valerate]: the IC50 result in data set [2] (MDA-MB-231 (ER-PR-GR++), TNBC, 72 hours, Table VI prints no unit (same values in Table III in μM)) was “Not active”. In addition, in [2] (MDA-MB-231, Table III), the “in vitro proliferation IC50” value is recorded as “not active”. In addition, the “Caspase 3/7 induction / caspase activation profile” value in data set [3] is “does not show a good profile for caspase activation”. For the same compound, in data set [1], the “Therapeutic Index = IC50 resting PBMC/IC50 cancer cell” value was 1 and the “Therapeutic Index = IC50 stimulated PBMC/IC50 cancer cell, AVERAGE” value is recorded as 3. Moreover, the IC50 in [4] was found to be 530 µM.
Compound `CC(=O)O[C@]1(C(C)=O)CC[C@H]2[C@@H]3C=C(Cl)C4=CC(=O)[C@@H]5C[C@@H]5[C@]4(C)[C@H]3CC[C@@]21C` [Cyproterone Acetate, Cyproterone acetate, reference compound] came in with an IC50 in data set [5] of 29 µM. Further, the “average tumor size increase” value in data set [6] (Example 5) stood at 12 fold. The “average tumor size increase” value in data set [6] (Example 6) is listed as ≥ 12 fold. The same compound came in with a Median survival in data set [6] (Example 22, 40 mg/Kg SC daily 28 days, vehicle 60 days) of 40 days. In addition, in [1], the “Therapeutic Index = IC50 resting PBMC/IC50 cancer cell” value was 1 and the “Therapeutic Index = IC50 stimulated PBMC/IC50 cancer cell, AVERAGE” value was found to be 1. Besides, in data set [7], the “TI on Stimulated PBMC” value turned out to be 1.
As to `CNC(=O)c1ccc(N2C(=S)N(c3ccc(C#N)c(C(F)(F)F)c3)C(=O)C2(C)C)cc1F` [Enzalutamide, reference compound], the “prostate tumor size increase after treatment was stopped” value in data set [8] (oral 100 mg/Kg daily 28 days, after stop) is reported as 8 fold. The “statistical significance of tumor growth versus vehicle” value in data set [8] (oral gavage, FIG. 16) is “statistically significant only on days 14 and 25”.
Turning to `Nc1ccn([C@@H]2O[C@H](CO)[C@@H](O)C2(F)F)c(=O)n1` [Gemcitabine, reference compound], the “Caspase 3/7 induction / caspase activation profile” value in data set [3] is “not seen until the 48 hours mark”.
In the case of `CC#C[C@]1(O)CC[C@H]2[C@@H]3CCC4=CC(=O)CCC4=C3[C@@H](c3ccc(N(C)C)cc3)C[C@@]21C` [RU486, Mifepristone, reference compound], the IC50 result in data set [9] is recorded as “Not active”.
